Values quoted from earlier work as cited in publication PMC7395068, “The evolution of strategies to minimise the risk of human drug-induced liver injury (DILI) in drug discovery and development” (Archives of Toxicology, 2020).
Like-named read-outs stand apart in the source and are kept apart here.

How the values were obtained:
[1] = cited from earlier work
[2] = cited from earlier work; remark: listed apart in the source
[3] = assignment in O'Brien 2006, ref O'Brien 2006

Compound: Cc1cccc(CN2CCN(C(c3ccccc3)c3ccc(Cl)cc3)CC2)c1 (stereo not shown) [meclizine]
- In vivo DILI ([1]; […]): -VE
- DILI +VE (5-8), DILI -VE (-4) ([2]; ref Chen 2016): -VE
- DILI severity category ([2]; ref Chen 2016): vNo-DILI-Concern

Compound: Cc1coc2c1CCC(C)C2 (stereo not shown) [menthofuran]
- In vivo DILI ([1]; […]): +VE

Compound: CCOC(=O)C1(c2ccccc2)CCN(C)CC1 [meperidine]
- In vivo DILI ([1]; in vivo): -VE
- DILI +VE (5-8), DILI -VE (-4) ([2]; in vivo): -VE
- DILI severity category ([2]; in vivo): vNo-DILI-Concern

Compound: Cc1cccc(C)c1NC(=O)C1CCCCN1C (stereo not shown) [mepivacaine]
- In vivo DILI ([1]; […]): -VE
- DILI +VE (5-8), DILI -VE (-4) ([2]; ref Chen 2016): -VE
- DILI severity category ([2]; ref Chen 2016): vNo-DILI-Concern

Compound: C[C@@H](O)[C@H]1C(=O)N2C(C(=O)O)=C(S[C@@H]3CN[C@H](C(=O)N(C)C)C3)[C@H](C)[C@H]12 [meropenem]
- In vivo DILI ([1]; […]): +VE
- DILI +VE (5-8), DILI -VE (-4) ([2]; ref Chen 2016): +VE
- DILI severity category ([2]; ref Chen 2016): vLess-DILI-Concern

Compound: C#C[C@]1(O)CC[C@H]2[C@@H]3CCc4cc(OC)ccc4[C@H]3CC[C@@]21C [mestranol]
- In vivo DILI ([1]; […]): -VE

Compound: C[C@H](N)[C@H](O)c1cccc(O)c1 [metaraminol]
- In vivo DILI ([1]; […]): -VE

Compound: CN[C@@H](C)Cc1ccccc1 [methamphetamine]
- In vivo DILI ([1]; […]): -VE
- DILI +VE (5-8), DILI -VE (-4) ([2]; ref Chen 2016): -VE
- DILI severity category ([2]; ref Chen 2016): vNo-DILI-Concern

Compound: COc1ccccc1OCC(O)COC(N)=O (stereo not shown) [methocarbamol]
- In vivo DILI ([1]; […]): -VE
- DILI +VE (5-8), DILI -VE (-4) ([2]; ref Chen 2016): -VE
- DILI severity category ([2]; ref Chen 2016): Ambiguous DILI-concern

Compound: CBr [methyl bromide]
- In vivo DILI ([1]; […]): -VE

Compound: C[C@](N)(Cc1ccc(O)cc1)C(=O)O [metyrosine]
- In vivo DILI ([1]; […]): -VE
- DILI +VE (5-8), DILI -VE (-4) ([2]; ref Chen 2016): -VE
- DILI severity category ([2]; ref Chen 2016): vNo-DILI-Concern

Compound: COc1ccc(OC)c(C(O)CNC(=O)CN)c1 (stereo not shown) [midodrine]
- In vivo DILI ([1]; […]): -VE
- DILI +VE (5-8), DILI -VE (-4) ([2]; ref Chen 2016): -VE
- DILI severity category ([2]; ref Chen 2016): vNo-DILI-Concern

Compound: NC(=O)C[S+]([O-])C(c1ccccc1)c1ccccc1 (stereo not shown) [modafinil]
- In vivo DILI ([1]; […]): -VE
- DILI +VE (5-8), DILI -VE (-4) ([2]; ref Chen 2016): +VE
- DILI severity category ([2]; ref Chen 2016): vLess-DILI-Concern

Compound: CC[C@@]1([C@@H]2O[C@@H]([C@H]3O[C@@](O)(CO)[C@H](C)C[C@@H]3C)C[C@@H]2C)CC[C@H]([C@]2(C)CC[C@]3(C[C@H](O)[C@@H](C)[C@@H]([C@@H](C)[C@@H](OC)[C@H](C)C(=O)O)O3)O2)O1 [monensin]
- In vivo DILI ([1]; in vivo): +VE

Compound: O=C(O)CC[N+](=O)[O-] [nitroproprionic acid]
- In vivo DILI [1, 3]: +VE

Compound: CN(C)N=O [nitrosodimethylamine]
- In vivo DILI [1, 3]: +VE

Compound: NC(=O)N1c2ccccc2CC(=O)c2ccccc21 [oxcarbazeptin]
- In vivo DILI ([1]; ref Schadt 2015): +VE

Compound: CCCCC1C(=O)N(c2ccccc2)N(c2ccc(O)cc2)C1=O (stereo not shown) [oxyphenbutazone]
- In vivo DILI ([1]; […]): +VE

Compound: CC(N)C(O)c1ccccc1 (stereo not shown) [phenylpropanolamine]
- In vivo DILI ([1]; in vivo): -VE

Compound: COc1ccc(CN(CCN(C)C)c2ccccn2)cc1 [pyrilamine]
- In vivo DILI ([1]; […]): -VE

Compound: CC(C)[C@@]1(O)[C@@H](OC(=O)c2ccc[nH]2)[C@@]2(O)[C@@]3(C)C[C@]4(O)O[C@@]5([C@H](O)[C@@H](C)CC[C@]35O)[C@@]2(O)[C@@]14C [ryanodine]
- In vivo DILI [1, 3]: +VE

Compound: [Na+].[OH-] [sodium hydroxide]
- In vivo DILI [1, 3]: +VE

Compound: COc1ncnc(NS(=O)(=O)c2ccc(N)cc2)c1OC [sulfadoxine]
- In vivo DILI ([1]; […]): -VE

Compound: C[C@H](CCC(=O)NCCS(=O)(=O)O)[C@H]1CC[C@H]2[C@@H]3[C@H](O)C[C@@H]4C[C@H](O)CC[C@]4(C)[C@H]3C[C@H](O)[C@]12C [taurocholic]
- In vivo DILI [1, 3]: +VE

Compound: C[C@H](CCC(=O)NCCS(=O)(=O)O)[C@H]1CC[C@H]2[C@@H]3CC[C@@H]4C[C@H](O)CC[C@]4(C)[C@H]3C[C@H](O)[C@]12C [taurodeoycholic]
- In vivo DILI [1, 3]: +VE

Compound: C[C@H](CCC(=O)NCCS(=O)(=O)O)[C@H]1CC[C@H]2[C@@H]3CC[C@@H]4C[C@H](O)CC[C@]4(C)[C@H]3CC[C@]12C [taurolithocholic]
- In vivo DILI [1, 3]: +VE

Compound: C[N+]1(C)[C@@H]2C[C@@H](OC(=O)C(O)(c3cccs3)c3cccs3)C[C@H]1[C@@H]1O[C@@H]12 [tiotropium]
- In vivo DILI ([1]; in vivo): -VE

Compound: C[C@]12C=CC(=O)C=C1CC[C@H]1[C@@H]3C[C@@H](O)[C@](O)(C(=O)CO)[C@@]3(C)C[C@H](O)[C@@]12F [triamcinolone]
- In vivo DILI ([1]; […]): -VE

Compound: ClC=C(Cl)Cl [trichloroethylene]
- In vivo DILI [1, 3]: +VE

Compound: dichloroethylene
- In vivo DILI [1, 3]: +VE

Compound: hemin
- In vivo DILI ([1]; […]): -VE
